Data from patent US11337427B2, “Antimicrobial agents and their use in therapy” (priority 2013, dated 2022).

Tests used:
[1] = tested on: Saccharomyces cerevisiae wild type BY4743; test: Yeast growth study in microplates (OD 600 nm); conditions: for concentration required to retard growth of the yeast cells: agent alone, wild-type yeast
Protocol: Growth studies on wild-type (wt) yeast and the Hog1 mutant were performed. […] The OD (600 nm) in each well was read every 20 minutes using an integrated Beckman Coulter Paradigm microplate reader. The growth of the yeast strains in the microplates was monitored for approximately 25 hours.

[2] = tested on: gram negative bacteria (Pseudomonas aeruginosa ATCC 15692, Acinetobacter baumanni ATCC 19606, Escherichia coli ATCC 25922, Pseudomonas aeruginosa TO-5A); test: Robotic MIC assay, gram negative bacteria; conditions: FIG. 4
[3] = tested on: Yeast cells (Saccharomyces cerevisiae); test: Cellular import of FAM-labelled ATX-101 (laser scanning microscopy); format: cell-based; conditions: FAM-labelled peptide, 1-2 minutes incubation
Protocol: Yeast cells (Saccharomyces cerevisiae) were grown in LB media. A fluorescently labelled APIM peptide (ATX-101-FAM) was added to the media and incubated for 1-2 minutes before an aliquot of cells was removed and analyzed on a Zeiss LSM 510 Meta laser scanning microscope equipped with a Plan-Apochromate 63×/1.4 oil immersion objective.

[4] = tested on: Staphylococcus aureus MRSA 1096; test: MIC assay; conditions: starting concentration 150 μg/ml
[5] = tested on: Staphylococcus aureus NCTC 6571; test: MIC assay; conditions: starting concentration 150 μg/ml
[6] = tested on: gram positive bacteria (Enterococcus faecium CCUG 37832, Enterococcus faecium CTC 492, Micrococcus luteus ATCC 9341); test: Robotic MIC assay, gram positive bacteria; conditions: FIG. 5
[7] = tested on: E. coli NCIMB 12210; conditions: E. coli NCIMB 12210, FIG. 7
[8] = tested on: E. coli BL21 (ripl); test: Overexpression of APIM peptides in E. coli (growth, OD); format: cell-based; conditions: induced with 1 mM IPTG; no cell-penetrating peptide
Text: In order to verify further that the anti-microbial effect of the APIM peptides arises from the APIM sequence, peptides containing only the APIM sequence (i.e. without a cell-penetrating peptide) were over-expressed in E. coli using the expression vector pET28. The APIM peptide was expressed alone or as part of a fusion protein with EYFP. Expression of EYFP alone was used as a control.
The expression vectors containing the respective peptides were transfected into the bacterial strain E. coli BL21 (ripl). Single colonies, 4-6 of each strain, were inoculated in […] LB media (+Km/Clm) in 96 wells plates, and incubated at 37° C. Overnight cultures were diluted 1:100 and grown for 1 h before induction with 1 mM IPTG (initiating peptide expression). OD was measured every hour.

In the case of `N.N.[Cl][Pt][Cl]` [cisplatin], the “concentration required to retard growth of the yeast cells” value [1] is reported as 500 µM, the “effect on growth of the yeast cells” value ([1]; cisplatin 125 μM alone) is reported as “not sufficient to retard growth” and the “effect on growth of the yeast cells” value ([1]; cisplatin 2000 μM alone) is reported as “growth is not completely inhibited”.
Ac-MDRWLVKWKKKRKIRRRRRRRRRRR [ATX-101] was tested, and the “concentration from which growth is inhibited” value [2] was “about 1 μM”, the cellular import [3] was “imported into yeast cells” and the Factor of inhibition [4] was 0.0625. For the same compound, the “concentration required to retard growth of the yeast cells” value [1] was at least 20 µM, the Factor of inhibition [5] was 1 and the “concentration from which growth is inhibited” value [6] was “about 1 μM”. For the same compound, the “reduction of the MIC for novobiocin” value [7] was 16 fold.
With “RFSLK (APIM variant) [APIM variant over-expressed in E. coli]” the “effect of overexpression on bacterial growth” value (from here on “effect of overexpression”) [8] was “particularly effective”.
With “RWLTK (APIM variant) [APIM variant over-expressed in E. coli]” the “effect of overexpression” value [8] was “particularly effective”.
With RWLVK (APIM variant) the “effect of overexpression” value [8] was “inhibits bacterial growth”.
For “RWLVP (APIM variant) [APIM variant over-expressed in E. coli]”, the “effect of overexpression” value [8] was “particularly effective”.
